# Reference: PMC6005341, “Identification of “sarsasapogenin-aglyconed” timosaponins as novel Aβ-lowering modulators of amyloid precursor protein processing” (Chemical Science, 2016)
# Tests used:
# [1] = system: Mouse primary cortical neurons; set-up: method as in earlier work; conditions: ref J. Biol. Chem. (2005) 280: 5829, J. Biol. Chem. (2010) 285:28472, read-out: In vitro IC50 Aβ inhibition; cited from earlier work
# [2] = system: brain Aβ / amyloid in APPswe transgene; conditions: cited from earlier work
# [3] = system: N2A expressing APPswe; set-up: method as in J. Neurosci., (2005) 25:8807; conditions: ref J. Neurosci., (2005) 25:8807, read-out: In vitro IC50 Aβ inhibition; cited from earlier work
# [4] = system: Aβ42 production in N2A-APPswe cells; experiment: Aβ42 in conditioned medium of N2A-APPswe cells by ELISA, 18 h treatment; assay type: cell-based; conditions: N2a-APPswe, read-out: IC50 in lowering Aβ42 production, N2A-APPswe cells; mean ± standard deviation; n ≥ 3
# Text: Sigma-Aldrich Chemical Co. unless otherwise specified. SSG (1) was purchased from Wako Pure Chemical Industries, Ltd. Diosgenin (6), Dioscin (9), Polyphyllin D (10), Timosaponin BI (22) and Timosaponin BII (23) were purchased from Chengdu Must Bio-Technology Co.
# Ltd. Yamogenin (7) was bought from Ambinter c/o Greenpharma while Smilagenin (24) was bought from Steraloids Inc. Substances dissolved in DMSO as stock solutions. Cell culture medium constituents were purchased from Life Technologies, Inc.
# Cell culture: Neuro-2A cells expressing Swedish mutants of APP (N2A-APPswe provided by Prof. Yifan Han, The Hong Kong Polytechnic University)1 was cultured in minimal essential medium with 2 mM glutamine, 2 mM pyruvate and 10% fetal bovine serum. […]
# Aβ ELISA: Aβ concentrations in conditioned medium were assayed using ELISA kits for […]
# [5] = system: Aβ42 levels in the brain; experiment: In vivo brain Aβ42 level by ELISA after oral dosing; conditions: 100 mg kg^–1 oral gavage, three times in 2 days, 3–5 month old C57BL/6 mice
# Description: was performed at least three times. The lowest binding scores were computed and the conformations of the corresponding binding pose presented.
# Quantum mechanics/Molecular mechanics. The binding between transmembrane and substrate was further optimized using the QM/MM approach and NWChem software. The quantum part (QM) included TAIII (total 116 atoms), while the rest of the system was modelled as the molecular mechanics (MM) level. The QM region was treated at the DFT level using the B3LYP method. The 6-31G* Pople basis set was employed for all the atoms.
# The transmembrane was described with the AMBER parm99 force field. The binding structure was solvated in a cubic box with 6872 classical SPC/E water molecules. Three negative counter ions (Cl-) were added to neutralize the charges in the system. The structure was optimized by performing the BFGS algorithm for the QM part and the steepest descent algorithm for the MM part. The optimization of these two regions (QM and MM) was alternated until self-consistency was reached.
# Animal experiments: Male C57BL/6N mice were housed in environmentally controlled room (temperature: 25 ± 2 °C, humidity: 50 ± 5%, 12-h light-dark cycle) in Laboratory Animal Unit, The University of Hong Kong and were freely access to food and water. TAIII, TAI SSG and compound 34 were dissolved in 5% Tween 80 and given to the mice by oral gavage at three repeated doses of 100 mg/kg in 48 hours. Mice were administrated with 5% Tween 80 (control group), TAIII, TAI SSG and 34. The experimental procedures were performed with the approval of Committee of Use of Live Animal for Teaching and Research of The University of Hong Kong. Blood (about 600-800 µL) was collected by cardiac puncture and added with 1/10 volume of Na2EDTA (20 mg/mL) to prevent coagulation. After centrifugation at 3000 g for 15 min at 4 °C, plasma was transferred to a centrifuge tube. […] Both plasma and brain samples were stored at -80 °C until they were analyzed. The Aβ42 levels were determined by Wako High Sensitive Aβx-42 ELISA kit. […]
# [6] = Plasma and brain concentrations by LC-MS/MS; assay type: in vivo, mice
# Description: Animal experiments: Male C57BL/6N mice were housed in environmentally controlled room (temperature: 25 ± 2 °C, humidity: 50 ± 5%, 12-h light-dark cycle) in Laboratory Animal Unit, The University of Hong Kong and were freely access to food and water. TAIII, TAI SSG and compound 34 were dissolved in 5% Tween 80 and given to the mice by oral gavage at three repeated doses of 100 mg/kg in 48 hours. Mice were administrated with 5% Tween 80 (control group), TAIII, TAI SSG and 34. The experimental procedures were performed with the approval of Committee of Use of Live Animal for Teaching and Research of The University of Hong Kong. Blood (about 600-800 µL) was collected by cardiac puncture and added with 1/10 volume of Na2EDTA (20 mg/mL) to prevent coagulation. After centrifugation at 3000 g for 15 min at 4 °C, plasma was transferred to a centrifuge tube. The brain was dissected into two hemispheres on ice, weighed and frozen in liquid nitrogen immediately. The left brain was homogenized with 1 mL of buffer containing 5 M guanidine HCl, 50 mM Tris HCl, pH 8.0, with protease inhibitor cocktail and AEBSF using a Polytron and the homogenates were allowed to stand at room temperature for 3h. Both plasma and brain samples were stored at -80 °C until they were analyzed. […]
# B. Determination of timosaponin levels in mice plasma and brain by ultra-high pressure liquid chromatography tandem mass spectrometry
# The UPLC-ESI-QTOF consists of a Waters Q-TOF PremierTM mass spectrometer (Micromass MS Technologies, Manchester, UK) operated in positive ion mode and a Waters ACQUITY TM UPLC system. The mass spectrometer conditions were optimized as follows: source […]
# temperature, 120 °C; desolvation temperature, 500 °C; nebulization gas flow rate, 1000 L/h; cone gas flow rate, 20 L/h; capillary voltage, 2.5 kV; sampling cone voltage, 28V. The data were collected into two separate data channels with the instrument spending 0.5 s on data acquisition for each channel and a 0.1 s inter-channel delay. The mass spectrometer was calibrated by using the solution of sodium formate (0.5 mM) and the TOF scan range was from 100 to 1000 Da. In order to improve mass measurement accuracy a lock mass compound (50 pg µL−1 solution of leucine encephalin; m/z 556.2771) was continuously infused at a 0.5 mL min-1 using the built-in syringe pump of the instrument.
# Sample was loaded into a Waters ACQUITY TM BEH C18 column (100 × 2.1 mm i.d., 1.7 µM) connected to a Waters ACQUITY TM BEH C18 guard column (5 × 2.1 mm i.d., 1.7 µM). The gradient elution system consisted of 0.1% formic acid in water (A) and 0.1% formic acid in acetonitrile (B). Separation was achieved by using: 30%-55% B from 0 to 3 min; 55-100% B from 3 to 6 min; 100% B from 6 to 12 min and returned to initial conditions and equilibrated for 3 minutes. The flow rate was 0.3 mL/min and the injection volume was 5 µL.
# Standard preparation and sample preparation
# Stock solution (10 µM ) of each analyte was prepared by dissolving in methanol. They were subject to serial dilution to give calibration curves of SSG 1 (plasma: y = 8.7485× - 0.0676; […]
# each concentration of each analyte was transferred to a centrifuge tube and evaporated to dryness by a concentrator. Dioscin (20 µL , 10 µM) was added as an internal standard followed by methanol (130 µL) and control plasma (50 µL). The mixture was vortexed for 5 s and centrifuged (15000 × g) for 15 min. The supernatant was collected and evaporated to dryness by a concentrator. Methanol (100 µL) was added and then vortexed again for 10 s and centrifuged (15000 × g) for 20 min. The supernatant (5 µL) was subject to LC-MS/MS analysis. Analyte-treated plasma, control brain and analyte-treated brain were prepared in a […]
# The acquisition and processing of data were performed by Masslynx (version 4.1) software.
# Mass window of ±10 mDa and mass resolution of 9000 were set for both molecular ions and product ions. MS full scan was applied to acquire high abundant molecular ions [M+H]+ with […]
# [7] = system: HEK293 expressing APP; set-up: method as in J. Biol. Chem. (2010) 285:9110; conditions: ref J. Biol. Chem. (2010) 285:9110, read-out: In vitro IC50 Aβ inhibition; cited from earlier work
# [8] = system: Brain Aβ42 in APP/PS1 transgene; set-up: method as in J. Biol. Chem. (2010) 285:9110; conditions: diet with 0.35% for 15 weeks, ref J. Biol. Chem. (2010) 285:9110; cited from earlier work
# [9] = system: SH-SY5Y Cells expressing APP; set-up: method as in J Neurosci. (2005) 25: 3032; J. Biol. Chem (2011) 286:14028; conditions: ref J Neurosci. (2005) 25: 3032, J. Biol. Chem (2011) 286:14028, read-out: In vitro IC50 Aβ inhibition; cited from earlier work
# [10] = system: HEK293 expressing APPswe; set-up: method as in J Neurosci Res (2012) 92: 108; conditions: ref J Neurosci Res (2012) 92: 108, read-out: In vitro IC50 Aβ inhibition; cited from earlier work
# [11] = system: β-secretase; set-up: method as in PMID 23082924; conditions: rat retina; cited from earlier work
# [12] = any metabolite, mice n = 6, three oral doses 100 mg/kg in two days
compound,measurement,setting,value
COc1cc(/C=C/C(=O)CC(=O)/C=C/c2ccc(O)c(OC)c2)ccc1O [Curcumin],IC50,[1],> 20 µM
same,Amyloid deposition,"[2]; chow with 500 ppm for 22 weeks, ref J. Biol. Chem. (2005) 280: 5829, J. Biol. Chem. (2010) 285:28472",reduced
Epigallocatechin-3-gallate [Epigallocatechin-3-gallate (EGCG)],IC50,[3],~20 µM
"CC1CCC2(OC1)OC1CC3C4CCC5CC(OCC(=O)NCC6OC(O)C(O)C(O)C6O)CCC5(C)C4CCC3(C)C1C2C (stereo not drawn) [α-, β-OH SSG (34), α-, β-OH SSG]",IC50,[4],7.3 ± 4 µM
same,reduction of Aβ42 levels in the brain,[5],87% ± 15%
same,Brain Metabolite,[6]; [12],Not detected
same,Plasma Metabolite,[6]; [12],Not detected
same,Brain Precursor,"[6]; mice n = 6, three oral doses 100 mg/kg in two days",0.025 ± 0.041 µM
same,Plasma Precursor,"[6]; mice n = 6, three repeated oral doses 100 mg/kg in two days",0.051 ± 0.072 µM
Oc1ccc(/C=C/c2cc(O)cc(O)c2)cc1 [Resveratrol],IC50,[7],~20 µM
same,Brain Aβ42 reduced by,[8],20%
CC/C=C\C/C=C\C/C=C\C/C=C\C/C=C\C/C=C\CCC(=O)O [docosahexaenoic acid],IC50,[9],~100 µM
same,Total Aβ reduced by,"[2]; diet with 0.5% level for 5 months, ref J Neurosci. (2005) 25: 3032, J. Biol. Chem (2011) 286:14028",70%
C/C=C1\[C@H]2C=C(C)C[C@]1(N)c1ccc(=O)[nH]c1C2 [Huperzine A],IC50,[10],~10 µM
"C[C@@H](CC[C@@]1(O)O[C@H]2C[C@H]3[C@@H]4CC[C@@H]5C[C@@H](O[C@@H]6O[C@H](CO)[C@H](O)[C@H](O)[C@H]6O[C@@H]6O[C@H](CO)[C@@H](O)[C@H](O)[C@H]6O)CC[C@]5(C)[C@H]4CC[C@]3(C)[C@H]2[C@@H]1C)CO[C@@H]1O[C@H](CO)[C@@H](O)[C@H](O)[C@H]1O [Timosaponin B II (23), timosaponin B II]",up-regulation of β-secretase induced by ferric chloride,[11],inhibit
